# Experimental data from PubChem BioAssay (NCI).
#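 Here, GI50 denotes the concentration required for 50% inhibition of growth. The concentration for full growth arrest is given as TGI.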
# Key:
# Assay in all cases: NCI-60 cell line screen, 384-well format
# [1] = system: UACC-257 melanoma
# [2] = system: 786-0 renal
# [3] = system: MOLT-4 leukemia
# [4] = system: HOP-92 NSCLC
# [5] = system: LOX IMVI melanoma
# [6] = system: NCI-H226 lung
# [7] = system: SK-MEL-5 melanoma
# [8] = system: UO-31 renal
# [9] = system: NCI-H322M lung
# [10] = system: SF-268 CNS
# [11] = system: HOP-62 NSCLC
# [12] = system: HL-60(TB) leukemia
# [13] = system: HCC-2998 colon
# [14] = system: SF-539 CNS
# [15] = system: NCI-H522 lung
# [16] = system: BT-549 breast
# [17] = system: OVCAR-3 ovarian
# [18] = system: SR leukemia
# [19] = system: SF-295 CNS
# [20] = system: MDA-MB-435 melanoma
# [21] = system: RXF 393 renal
# [22] = system: SN12C renal
# [23] = system: OVCAR-4 ovarian
# [24] = system: SW-620 colon
# [25] = system: NCI-H460 NSCLC
# [26] = system: RPMI-8226 leukemia
# [27] = system: MDA-MB-468 breast
# [28] = system: SK-OV-3 ovarian
# [29] = system: MCF7 breast
# [30] = system: M14 melanoma
# [31] = system: SK-MEL-28 melanoma
# [32] = system: MALME-3M melanoma
# [33] = system: COLO 205 colon
# [34] = system: K-562 leukemia
# [35] = system: A498 renal
# [36] = system: U251 glioblastoma
# [37] = system: IGROV1 ovarian
# [38] = system: UACC-62 melanoma
# [39] = system: CAKI-1 renal
# [40] = system: HCT-15 colon
# [41] = system: OVCAR-8 ovarian
# [42] = system: PC-3 prostate
# [43] = system: SNB-19 CNS
# [44] = system: KM12 colon
# [45] = system: A549 NSCLC
# [46] = system: DU-145 prostate
# [47] = system: SK-MEL-2 melanoma
# [48] = system: MDA-MB-231 breast
# [49] = system: NCI/ADR-RES ovarian
# [50] = system: SNB-75 CNS
# [51] = system: TK-10 renal
# [52] = system: ACHN renal
# [53] = system: HS 578T breast
# [54] = system: HT29 colon
# [55] = system: CCRF-CEM leukemia
# [56] = system: OVCAR-5 ovarian
# [57] = system: EKVX NSCLC
# [58] = system: HCT-116 colon
# [59] = system: NCI-H23 lung
# [60] = system: T-47D breast
smiles,measurement,setting,value
C[C@H]1C[C@@H](n2c(Nc3ccc(OC(F)(F)F)cc3)nc3cc(CCC(=O)O)ccc32)CC(C)(C)C1,GI50,[1],17.8 µM
same,TGI,[1],31.8 µM
same,GI50,[2],13.8 µM
same,TGI,[2],26.8 µM
same,GI50,[3],5.49 µM
same,TGI,[3],17.4 µM
same,GI50,[4],16 µM
same,TGI,[4],29.5 µM
same,GI50,[5],16.7 µM
same,TGI,[5],30.5 µM
same,GI50,[6],16.2 µM
same,TGI,[6],29.8 µM
same,GI50,[7],14.2 µM
same,TGI,[7],27.3 µM
same,GI50,[8],11.9 µM
same,TGI,[8],24.4 µM
same,GI50,[9],17 µM
same,TGI,[9],30.9 µM
same,GI50,[10],13 µM
same,TGI,[10],25.8 µM
same,GI50,[11],12.2 µM
same,TGI,[11],24.7 µM
same,GI50,[12],8.07 µM
same,TGI,[12],17.7 µM
same,GI50,[13],14.1 µM
same,TGI,[13],27.1 µM
same,GI50,[14],14.5 µM
same,TGI,[14],27.7 µM
same,GI50,[15],16.5 µM
same,TGI,[15],30.1 µM
same,GI50,[16],13 µM
same,TGI,[16],25.8 µM
same,GI50,[17],9.71 µM
same,TGI,[17],22.5 µM
same,GI50,[18],7 µM
same,TGI,[18],20 µM
same,GI50,[19],11.8 µM
same,TGI,[19],24.2 µM
same,GI50,[20],14.9 µM
same,TGI,[20],28.3 µM
same,GI50,[21],13 µM
same,TGI,[21],25.7 µM
same,GI50,[22],15.7 µM
same,TGI,[22],29.2 µM
same,GI50,[23],13.1 µM
same,TGI,[23],25.9 µM
same,GI50,[24],14.6 µM
same,TGI,[24],27.9 µM
same,GI50,[25],13.6 µM
same,TGI,[25],26.8 µM
same,GI50,[26],4.46 µM
same,TGI,[26],11.4 µM
same,GI50,[27],13.7 µM
same,TGI,[27],28.7 µM
same,GI50,[28],18.2 µM
same,TGI,[28],32.2 µM
same,TGI,[29],19.2 µM
same,GI50,[30],15.4 µM
same,TGI,[30],28.9 µM
same,GI50,[31],14.3 µM
same,TGI,[31],27.5 µM
same,GI50,[32],18.3 µM
same,TGI,[32],32.4 µM
same,GI50,[33],17.5 µM
same,TGI,[33],31.5 µM
same,GI50,[34],12.2 µM
same,TGI,[34],24.9 µM
same,GI50,[35],13.3 µM
same,TGI,[35],26.2 µM
same,GI50,[36],9.69 µM
same,TGI,[36],22.5 µM
same,GI50,[37],12.7 µM
same,TGI,[37],25.4 µM
same,GI50,[38],15.2 µM
same,TGI,[38],28.6 µM
same,GI50,[39],17.2 µM
same,TGI,[39],31 µM
same,GI50,[40],13.9 µM
same,TGI,[40],27.1 µM
same,GI50,[41],9.58 µM
same,TGI,[41],22 µM
same,GI50,[42],13.7 µM
same,TGI,[42],26.8 µM
same,GI50,[43],12.5 µM
same,TGI,[43],25.1 µM
same,GI50,[44],13.8 µM
same,TGI,[44],26.9 µM
same,GI50,[45],7.54 µM
same,TGI,[45],20.2 µM
same,GI50,[46],11.8 µM
same,TGI,[46],24.2 µM
same,GI50,[47],17.9 µM
same,TGI,[47],31.8 µM
same,GI50,[48],16.4 µM
same,TGI,[48],30 µM
same,GI50,[49],16.1 µM
same,TGI,[49],29.8 µM
same,GI50,[50],20.3 µM
same,TGI,[50],34.6 µM
same,GI50,[51],16 µM
same,TGI,[51],29.7 µM
same,GI50,[52],15.5 µM
same,TGI,[52],30.8 µM
same,GI50,[53],11 µM
same,TGI,[53],23.1 µM
same,GI50,[54],12.7 µM
same,TGI,[54],25.6 µM
same,GI50,[55],11.9 µM
same,TGI,[55],24.3 µM
same,GI50,[56],17.2 µM
same,TGI,[56],31.1 µM
same,GI50,[57],14.6 µM
same,TGI,[57],27.9 µM
same,GI50,[58],12.2 µM
same,TGI,[58],24.9 µM
same,GI50,[59],14.6 µM
same,TGI,[59],27.9 µM
same,GI50,[60],13.5 µM
same,TGI,[60],27.6 µM
CN[C@@H](C)C(=O)N[C@H](C(=O)N1CCC[C@H]1c1nc(C(=O)c2ccc(F)cc2)cs1)C1CCCCC1,GI50,[1],15.4 µM
same,TGI,[1],28.8 µM
same,GI50,[2],15.8 µM
same,TGI,[2],29.3 µM
same,GI50,[3],13.1 µM
same,TGI,[3],25.7 µM
same,GI50,[4],4.3 µM
same,TGI,[4],19 µM
same,GI50,[5],16.2 µM
same,TGI,[5],29.7 µM
same,GI50,[6],21.7 µM
same,TGI,[6],60.5 µM
same,GI50,[7],10.2 µM
same,TGI,[7],21.8 µM
same,GI50,[8],30 µM
same,TGI,[8],> 100 µM
same,GI50,[9],20.3 µM
same,TGI,[9],51.4 µM
same,GI50,[10],18.5 µM
same,TGI,[10],36.9 µM
same,GI50,[11],3.25 µM
same,TGI,[11],17.6 µM
same,GI50,[12],0.612 µM
same,TGI,[12],3 µM
same,GI50,[13],14.2 µM
same,TGI,[13],27.4 µM
same,GI50,[14],17.5 µM
same,TGI,[14],31.3 µM
same,GI50,[15],6.47 µM
same,TGI,[15],20.8 µM
same,GI50,[16],12 µM
same,TGI,[16],24.4 µM
same,GI50,[17],11.4 µM
same,TGI,[17],25.2 µM
same,GI50,[19],16.4 µM
same,TGI,[19],30.9 µM
same,GI50,[20],14.1 µM
same,TGI,[20],33.5 µM
same,GI50,[21],0.409 µM
same,TGI,[21],11.1 µM
same,GI50,[22],53.8 µM
same,TGI,[22],> 100 µM
same,GI50,[23],0.044 µM
same,TGI,[23],0.51 µM
same,GI50,[24],23.9 µM
same,TGI,[24],47.8 µM
same,GI50,[25],20.2 µM
same,TGI,[25],34.8 µM
same,GI50,[26],6.69 µM
same,TGI,[26],20 µM
same,GI50,[27],1.86 µM
same,TGI,[27],13.8 µM
same,GI50,[28],0.0692 µM
same,TGI,[28],1.58 µM
same,GI50,[29],11.7 µM
same,TGI,[29],26.1 µM
same,GI50,[30],18.2 µM
same,TGI,[30],32.2 µM
same,GI50,[31],16.4 µM
same,TGI,[31],30 µM
same,GI50,[32],0.33 µM
same,TGI,[32],2.99 µM
same,GI50,[33],17.1 µM
same,TGI,[33],32.5 µM
same,GI50,[34],16.8 µM
same,TGI,[34],30.5 µM
same,GI50,[35],15.5 µM
same,TGI,[35],29.1 µM
same,GI50,[36],15.9 µM
same,TGI,[36],29.7 µM
same,GI50,[37],21.2 µM
same,TGI,[37],39.5 µM
same,GI50,[38],18.7 µM
same,TGI,[38],34.1 µM
same,GI50,[39],25.5 µM
same,TGI,[39],48.4 µM
same,GI50,[40],20.3 µM
same,TGI,[40],42 µM
same,GI50,[41],10.2 µM
same,TGI,[41],24.1 µM
same,GI50,[42],19.5 µM
same,TGI,[42],38.7 µM
same,GI50,[43],31.8 µM
same,TGI,[43],> 100 µM
same,GI50,[44],17.3 µM
same,TGI,[44],32.2 µM
same,GI50,[45],26.8 µM
same,TGI,[45],> 100 µM
same,GI50,[46],17.9 µM
same,TGI,[46],39.3 µM
same,GI50,[48],0.597 µM
same,TGI,[48],3.29 µM
same,GI50,[49],17.1 µM
same,TGI,[49],34.9 µM
same,GI50,[50],10.1 µM
same,TGI,[50],25.6 µM
same,GI50,[51],21.2 µM
same,TGI,[51],53.3 µM
same,GI50,[52],23.3 µM
same,TGI,[52],56.7 µM
same,GI50,[53],5.06 µM
same,TGI,[53],20.8 µM
same,GI50,[54],17.1 µM
same,TGI,[54],31.1 µM
same,GI50,[55],7.4 µM
same,TGI,[55],20.7 µM
same,GI50,[56],23.4 µM
same,TGI,[56],51 µM
same,GI50,[57],18.7 µM
same,TGI,[57],41.3 µM
same,GI50,[58],18 µM
same,TGI,[58],32.3 µM
same,GI50,[59],13.3 µM
same,TGI,[59],35.2 µM
same,GI50,[60],13.1 µM
same,TGI,[60],27.6 µM
